This note sets out measurements from patent US10786542B2 (priority 2016, dated 2020).

Where two headings read alike, the source gives them in different places.

In data set [1] the test system is A549 cells. Description: cells. It is filed as cell-based. The following applies: for IC50: Homo sapiens.
Data set [2] deals with MRP1 (Homo sapiens, UniProt P33527). The data set can be described thus: cell-based.
Data set [3] concerns HEK control cells. Description: cells. To be noted: Homo sapiens. It is filed as cell-based.
A short description of data set [4]: in vitro. The following applies: human, IC50 etoposide-induced growth inhibition.
The mark [5] stands for this setting: A549, read-out: IC50 growth inhibition, co-treatment with 10 nM HN2.
The mark [6] stands for this setting: A549, read-out: IC50 growth inhibition, drug alone.

MRP1, sequence (P33527 whole entry): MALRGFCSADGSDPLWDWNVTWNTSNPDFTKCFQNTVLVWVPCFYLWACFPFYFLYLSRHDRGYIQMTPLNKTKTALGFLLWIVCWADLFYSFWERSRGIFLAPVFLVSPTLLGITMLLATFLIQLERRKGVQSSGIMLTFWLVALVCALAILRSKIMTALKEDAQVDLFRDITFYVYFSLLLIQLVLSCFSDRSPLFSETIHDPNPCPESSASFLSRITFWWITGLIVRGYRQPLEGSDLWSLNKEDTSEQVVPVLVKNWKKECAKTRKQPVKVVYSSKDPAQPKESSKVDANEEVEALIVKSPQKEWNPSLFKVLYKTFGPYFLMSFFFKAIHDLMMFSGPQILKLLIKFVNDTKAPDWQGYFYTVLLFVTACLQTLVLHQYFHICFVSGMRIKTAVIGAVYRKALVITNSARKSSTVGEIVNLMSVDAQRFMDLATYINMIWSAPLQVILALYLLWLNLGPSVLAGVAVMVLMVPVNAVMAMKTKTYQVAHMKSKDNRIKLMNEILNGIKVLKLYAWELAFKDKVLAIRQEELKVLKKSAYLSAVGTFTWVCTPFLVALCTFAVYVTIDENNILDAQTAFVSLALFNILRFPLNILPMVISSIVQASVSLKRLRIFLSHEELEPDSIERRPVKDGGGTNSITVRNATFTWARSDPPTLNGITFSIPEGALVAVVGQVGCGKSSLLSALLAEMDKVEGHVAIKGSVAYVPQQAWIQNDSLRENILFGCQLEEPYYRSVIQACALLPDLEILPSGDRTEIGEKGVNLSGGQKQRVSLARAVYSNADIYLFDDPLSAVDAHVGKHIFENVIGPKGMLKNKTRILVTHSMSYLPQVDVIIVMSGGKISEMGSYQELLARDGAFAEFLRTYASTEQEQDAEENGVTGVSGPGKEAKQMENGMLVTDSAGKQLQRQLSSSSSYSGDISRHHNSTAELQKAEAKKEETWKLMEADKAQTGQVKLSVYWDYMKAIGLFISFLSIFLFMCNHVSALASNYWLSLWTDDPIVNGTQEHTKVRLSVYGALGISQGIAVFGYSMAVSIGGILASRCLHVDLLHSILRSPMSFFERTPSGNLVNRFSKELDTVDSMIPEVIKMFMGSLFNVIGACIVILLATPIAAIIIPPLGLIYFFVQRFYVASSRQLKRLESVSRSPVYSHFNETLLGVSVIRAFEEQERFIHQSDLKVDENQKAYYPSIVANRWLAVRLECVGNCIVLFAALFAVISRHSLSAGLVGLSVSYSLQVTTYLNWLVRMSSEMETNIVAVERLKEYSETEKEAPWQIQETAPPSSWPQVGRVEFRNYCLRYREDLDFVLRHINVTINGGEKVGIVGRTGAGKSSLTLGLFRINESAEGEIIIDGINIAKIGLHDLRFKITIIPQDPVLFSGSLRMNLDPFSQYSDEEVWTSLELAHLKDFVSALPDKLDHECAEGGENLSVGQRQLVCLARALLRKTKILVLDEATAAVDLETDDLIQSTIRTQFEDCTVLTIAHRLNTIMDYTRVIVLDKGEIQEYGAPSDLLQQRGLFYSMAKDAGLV

`CN(C)C(=O)CCSC(SCCC(=O)O)c1cccc(/C=C/c2ccc3ccc(Cl)cc3n2)c1` (stereo not drawn) [MK-571]: the “Increase in sensitivity to MRP1 substrate drugs” value in data set [1] is listed as “six-fold”.

Regarding `CN(Cc1cnc2nc(N)nc(N)c2n1)c1ccc(C(=O)N[C@@H](CCC(=O)O)C(=O)O)cc1` [Methotrexate, methotrexate], the half-inhibitory concentration (IC50) came out at 0.048 µM in data set [1] (setting [5]) and 0.23 µM in data set [1] (setting [6]).

For the compound `CC[C@]1(O)C[C@H]2CN(CCc3c([nH]c4ccccc34)[C@@](C(=O)OC)(c3cc4c(cc3OC)N(C=O)[C@H]3[C@@](O)(C(=O)OC)[C@H](OC(C)=O)[C@]5(CC)C=CCN6CC[C@]43[C@@H]65)C2)C1` [Vincristine, vincristine], the concentration for half-maximal inhibition (IC50) in data set [1] (setting [5]) was 0.045 µM; in data set [1] (setting [6]), 0.36 µM.

On to `CCOC(=O)C#CC(=O)OCC` [diethyl acetylenedicarboxylate], for which 0.006 µM corresponded to half-maximal inhibition in data set [2] (IC50).

On to `COc1cc([C@@H]2c3cc4c(cc3[C@@H](O[C@@H]3O[C@@H]5CO[C@@H](C)O[C@H]5[C@H](O)[C@H]3O)[C@H]3COC(=O)[C@H]23)OCO4)cc(OC)c1O` [etoposide], for which the IC50 is 0.075 µM in data set [1] (setting [5]); 1 µM in data set [1] (setting [6]); 0.047 µM in data set [3] (read-out: IC50 etoposide-induced growth inhibition, co-treatment with 3 nM HN2); 0.055 µM in data set [3] (read-out: IC50 etoposide-induced growth inhibition, etoposide alone); 0.042 µM in data set [4] (co-treated with 10 nM HN2); 0.96 µM in data set [4] (etoposide alone).
